Reference: ChEMBL document CHEMBL1136270 (Bioorg Med Chem Lett, 2003)

What follows are compounds tested on THP-1 (assay: Anti human TNF-alpha activity determined through TNF-alpha release was measured in the supernatants by ELISA.; not active at a concentration of <10 uM).
Format: functional, cell-based
For `O=C1NCc2nc(Sc3ccc(F)cc3F)c(Br)cc2N1c1c(Cl)cccc1Cl`, the IC50 was “Not Active”.

What follows are compounds tested on THP-1 (assay: Anti human TNF-alpha activity determined through TNF-alpha release was measured in the supernatants by ELISA; not active at a concentration of <10 uM).
Format: functional, cell-based
`CC(C)(C)OC(=O)N1CC2CC1CN2c1cc2c(nc1Sc1ccc(F)cc1F)CNC(=O)N2c1c(Cl)cccc1Cl` (configuration not stated) was tested, and the IC50 was “Not Active”.
For `CC(C)(C)OC(=O)N1CCN(c2cc3c(nc2Sc2ccc(F)cc2F)CNC(=O)N3c2c(Cl)cccc2Cl)CC1`, the IC50 was “Not Active”.

These compounds were tested against MAP kinase p38 (Mus musculus, UniProt P47811+O08911+Q9WUI1+Q9Z1B7) (assay: Inhibitory activity against mouse Mitogen-activated protein kinase p38).
Format: protein assay
Compound `CC(C)N1CC2CC1CN2c1cc2c(nc1Sc1ccc(F)cc1F)CNC(=O)N2c1c(Cl)cccc1Cl` (configuration not stated) has an IC50 of 2 nM.
Compound `O=C1NCc2nc(Sc3ccc(F)cc3F)c(N3CC4CC3CN4)cc2N1c1c(Cl)cccc1Cl` (configuration not stated) has an IC50 of 0.6 nM.
`O=C1NCc2nc(Sc3ccc(F)cc3F)c(NC3CCNCC3)cc2N1c1c(Cl)cccc1Cl` was tested, and the IC50 was 4 nM.
For `CC(C)(C)OC(=O)N1CC2CC1CN2c1cc2c(nc1Sc1ccc(F)cc1F)CNC(=O)N2c1c(Cl)cccc1Cl` (configuration not stated), the IC50 was 44 nM.
With `CC(C)(C)OC(=O)N1CCN(c2cc3c(nc2Sc2ccc(F)cc2F)CNC(=O)N3c2c(Cl)cccc2Cl)CC1` the IC50 was 25 nM.
Work on `CC1CN(c2cc3c(nc2Sc2ccc(F)cc2F)CNC(=O)N3c2c(Cl)cccc2Cl)CC(C)O1` (configuration not stated) yielded an IC50 of 3 nM.
In the case of `O=C1NCc2nc(Sc3ccc(F)cc3F)c(N3CC4CC3CN4CC3CC3)cc2N1c1c(Cl)cccc1Cl` (configuration not stated), the IC50 is reported as 3 nM.
`O=C1NCc2nc(Sc3ccc(F)cc3F)c(N3CCOCC3)cc2N1c1c(Cl)cccc1Cl` gave an IC50 of 2 nM.
`O=C1NCc2nc(Sc3ccc(F)cc3F)c(N3CC4CCC3C4)cc2N1c1c(Cl)cccc1Cl` (configuration not stated) gave an IC50 of 5.3 nM.
For `CN(C)CCN1CCN(c2cc3c(nc2Sc2ccc(F)cc2F)CNC(=O)N3c2c(Cl)cccc2Cl)CC1`, the IC50 was 0.6 nM.
`O=C1NCc2nc(Sc3ccc(F)cc3F)c(N3CC4CC3CN4C3CC3)cc2N1c1c(Cl)cccc1Cl` (configuration not stated) showed an IC50 of 3 nM.
With `O=C1NCc2nc(Sc3ccc(F)cc3F)c(N3CCC(CCN4CCCC4)CC3)cc2N1c1c(Cl)cccc1Cl` the IC50 was 6 nM.
Compound `CC(C)N1CCN(c2cc3c(nc2Sc2ccc(F)cc2F)CNC(=O)N3c2c(Cl)cccc2Cl)CC1` has an IC50 of 7 nM.
`O=C1NCc2nc(Sc3ccc(F)cc3F)c(OC3CCNCC3)cc2N1c1c(Cl)cccc1Cl` was tested, and the IC50 was 11 nM.
`O=C1NCc2nc(Sc3ccc(F)cc3F)c(Br)cc2N1c1c(Cl)cccc1Cl` gave an IC50 of 16 nM.
`CCN1CC2CC1CN2c1cc2c(nc1Sc1ccc(F)cc1F)CNC(=O)N2c1c(Cl)cccc1Cl` (configuration not stated) gave an IC50 of 9 nM.
Work on `O=C1NCc2nc(Sc3ccc(F)cc3F)c(N3CCNCC3)cc2N1c1c(Cl)cccc1Cl` yielded an IC50 of 2 nM.
Work on `O=C1NCc2nc(Sc3ccc(F)cc3F)c(N3CCN(CCN4CCCC4)CC3)cc2N1c1c(Cl)cccc1Cl` yielded an IC50 of 1.1 nM.
Compound `O=C1NCc2nc(Sc3ccc(F)cc3F)c(N3CCCCC3)cc2N1c1c(Cl)cccc1Cl` has an IC50 of 4.2 nM.
